The test deals with MV-4-11 cells. In words: Gene expression microarray analysis (Affymetrix PrimeView) and GSEA. It is filed as cell-based, human. Further details: RFU PODN (11730768_x_at) / Fold change /veh PODN (11730768_x_at) / RFU LINC00158 (11744669_a_at) / Fold change /veh LINC00158 (11744669_a_at) / RFU DUSP10 (11751237_a_at) / Fold change /veh DUSP10 (11751237_a_at) / RFU ID3 (11757404_x_at) / Fold change /veh ID3 (11757404_x_at) / RFU PLEKHG5 (11737974_s_at) / Fold change /veh PLEKHG5 (11737974_s_at) / RFU LRRC4B (11730491_at) / Fold change /veh LRRC4B (11730491_at) / RFU GIMAP4 (11747438_a_at) / Fold change /veh GIMAP4 (11747438_a_at) / RFU KRT8 (11758183_x_at) / Fold change /veh KRT8 (11758183_x_at) / RFU CNN1 (11734310_a_at) / Fold change /veh CNN1 (11734310_a_at) / RFU VPS37D (11726825_at) / Fold change /veh VPS37D (11726825_at) / RFU C10orf10 (11716522_x_at) / Fold change /veh C10orf10 (11716522_x_at) / RFU KIR2DL2 /// KIR2DL4 /// KIR2DL5A /// KIR2DL5B /// KIR2DS1 /// KIR2DS2 /// KIR2DS3 /// KIR2DS4 /// KIR3DL3 /// KIR3DL3 /// KIR3DS1 (11738374_at) / Fold change /veh KIR2DL2 /// KIR2DL4 /// KIR2DL5A /// KIR2DL5B /// KIR2DS1 /// KIR2DS2 /// KIR2DS3 /// KIR2DS4 /// KIR3DL3 /// KIR3DL3 /// KIR3DS1 (11738374_at) / RFU C1QL1 (11718748_at) / Fold change /veh C1QL1 (11718748_at) / RFU TMPRSS4 (11747572_a_at) / Fold change /veh TMPRSS4 (11747572_a_at) / RFU HAMP (11756126_x_at) / Fold change /veh HAMP (11756126_x_at) / RFU RNFT2 (11725882_a_at) / Fold change /veh RNFT2 (11725882_a_at) / RFU NR4A2 (11747474_a_at) / Fold change /veh NR4A2 (11747474_a_at) / RFU ABCC12 (11746883_a_at) / Fold change /veh ABCC12 (11746883_a_at) / RFU TMEM136 (11760407_x_at) / Fold change /veh TMEM136 (11760407_x_at) / RFU CLDN22 /// WWC2 (11732394_at) / Fold change /veh CLDN22 /// WWC2 (11732394_at) / RFU HLA-DPB1 (11760878_x_at) / Fold change /veh HLA-DPB1 (11760878_x_at) / RFU SPINT1 (11716480_a_at) / Fold change /veh SPINT1 (11716480_a_at) / RFU GAP43 (11754022_s_at) / Fold change /veh GAP43 (11754022_s_at) / RFU A4GNT (11735810_at) / Fold change /veh A4GNT (11735810_at) / RFU PRB3 (11715151_x_at) / Fold change /veh PRB3 (11715151_x_at) / RFU TUBB4B (11761932_at) / Fold change /veh TUBB4B (11761932_at) / RFU CAPN14 (11732068_a_at) / Fold change /veh CAPN14 (11732068_a_at) / RFU TMCC2 (11721928_a_at) / Fold change /veh TMCC2 (11721928_a_at) / RFU IRGQ (11745062_a_at) / Fold change /veh IRGQ (11745062_a_at) / RFU FAM174B (11720279_a_at) / Fold change /veh FAM174B (11720279_a_at) / RFU TMPRSS4 (11748680_a_at) / Fold change /veh TMPRSS4 (11748680_a_at) / RFU FAM212B (11763350_a_at) / Fold change /veh FAM212B (11763350_a_at) / RFU PLEKHG5 (11743358_a_at) / Fold change /veh PLEKHG5 (11743358_a_at) / RFU ZSCAN30 (11745921_a_at) / Fold change /veh ZSCAN30 (11745921_a_at) / RFU CMKLR1 (11741424_a_at) / Fold change /veh CMKLR1 (11741424_a_at) / RFU LOC101060620 /// MAPK8IP1 (11723275_at) / Fold change /veh LOC101060620 /// MAPK8IP1 (11723275_at) / RFU SPTSSB (11747773_x_at) / Fold change /veh SPTSSB (11747773_x_at) / RFU PRSS12 (11739890_at) / Fold change /veh PRSS12 (11739890_at) / RFU BIN1 (11741810_x_at) / Fold change /veh BIN1 (11741810_x_at) / RFU WNT11 (11732464_a_at) / Fold change /veh WNT11 (11732464_a_at) / RFU C10orf10 (11716521_a_at) / Fold change /veh C10orf10 (11716521_a_at) / RFU C5orf56 (11738089_at) / Fold change /veh C5orf56 (11738089_at) / RFU CYB561 (11721691_x_at) / Fold change /veh CYB561 (11721691_x_at) / RFU ANKRD19P (11752326_a_at) / Fold change /veh ANKRD19P (11752326_a_at) / RFU OR2T12 /// OR2T33 /// OR2T8 (11738714_s_at) / Fold change /veh OR2T12 /// OR2T33 /// OR2T8 (11738714_s_at) / RFU VCAN (11748164_a_at) / Fold change /veh VCAN (11748164_a_at) / RFU JSRP1 (11732532_at) / Fold change /veh JSRP1 (11732532_at) / RFU KRTAP10-11 (11738290_x_at) / Fold change /veh KRTAP10-11 (11738290_x_at) / RFU MYO3A (11730013_a_at) / Fold change /veh MYO3A (11730013_a_at) / RFU EBF3 (11725865_a_at) / Fold change /veh EBF3 (11725865_a_at) / RFU CAMK2N1 (11719241_x_at) / Fold change /veh CAMK2N1 (11719241_x_at) / RFU C5orf56 (11738088_a_at) / Fold change /veh C5orf56 (11738088_a_at) / RFU OLFML3 (11715873_a_at) / Fold change /veh OLFML3 (11715873_a_at) / RFU LOC100653217 /// NTM (11731650_a_at) / Fold change /veh LOC100653217 /// NTM (11731650_a_at) / RFU MAPK11 (11762145_a_at) / Fold change /veh MAPK11 (11762145_a_at) / RFU FIZ1 (11724087_x_at) / Fold change /veh FIZ1 (11724087_x_at) / RFU OASL (11726364_x_at) / Fold change /veh OASL (11726364_x_at) / RFU SOX15 (11748057_x_at) / Fold change /veh SOX15 (11748057_x_at) / RFU CD79A (11719716_a_at) / Fold change /veh CD79A (11719716_a_at) / RFU HIST1H1D (11736915_at) / Fold change /veh HIST1H1D (11736915_at) / RFU CASKIN2 (11723855_a_at) / Fold change /veh CASKIN2 (11723855_a_at) / RFU LOC730098 (11760151_x_at) / Fold change /veh LOC730098 (11760151_x_at) / RFU OR4N2 (11742367_at) / Fold change /veh OR4N2 (11742367_at) / RFU PRRT2 (11749266_a_at) / Fold change /veh PRRT2 (11749266_a_at) / RFU SNX32 (11753110_a_at) / Fold change /veh SNX32 (11753110_a_at) / RFU CDHR5 (11726645_a_at) / Fold change /veh CDHR5 (11726645_a_at) / RFU RCAN1 (11760418_a_at) / Fold change /veh RCAN1 (11760418_a_at) / RFU FAM167A (11723789_a_at) / Fold change /veh FAM167A (11723789_a_at) / RFU FAM26E (11764081_at) / Fold change /veh FAM26E (11764081_at) / RFU ISYNA1 (11749810_s_at) / Fold change /veh ISYNA1 (11749810_s_at) / RFU ACY1 (11761880_at) / Fold change /veh ACY1 (11761880_at) / RFU 11764098_at / Fold change /veh 11764098_at / RFU SAMD14 (11745864_x_at) / Fold change /veh SAMD14 (11745864_x_at) / RFU NPB (11741838_a_at) / Fold change /veh NPB (11741838_a_at) / RFU TMPRSS6 (11731388_a_at) / Fold change /veh TMPRSS6 (11731388_a_at) / RFU KRTAP10-2 (11738614_at) / Fold change /veh KRTAP10-2 (11738614_at) / RFU ARHGAP8 /// PRR5-ARHGAP8 (11727945_x_at) / Fold change /veh ARHGAP8 /// PRR5-ARHGAP8 (11727945_x_at) / RFU KRTAP5-7 /// NADSYN1 (11734609_at) / Fold change /veh KRTAP5-7 /// NADSYN1 (11734609_at) / RFU RASL12 (11751679_a_at) / Fold change /veh RASL12 (11751679_a_at) / RFU CDKN2B (11736163_a_at) / Fold change /veh CDKN2B (11736163_a_at) / RFU PRF1 (11729649_at) / Fold change /veh PRF1 (11729649_at) / RFU, ZNF638 /// ZNF638-IT1 / Fold change vs veh, ZNF638 /// ZNF638-IT1 / RFU, PANK3 / Fold change vs veh, PANK3 / RFU, SH3YL1 / Fold change vs veh, SH3YL1 / RFU, ZEB2 / Fold change vs veh, ZEB2 / RFU, NRIP1 / Fold change vs veh, NRIP1 / RFU, PTTG1IP / Fold change vs veh, PTTG1IP / RFU, CAPN2 / Fold change vs veh, CAPN2 / RFU, MED14 / Fold change vs veh, MED14 / RFU, SNORA58 / Fold change vs veh, SNORA58 / RFU, C1orf63 / Fold change vs veh, C1orf63 / RFU, LRRFIP1 / Fold change vs veh, LRRFIP1 / RFU, NDUFAF7 / Fold change vs veh, NDUFAF7 / RFU, SLC12A2 / Fold change vs veh, SLC12A2 / RFU, IBTK / Fold change vs veh, IBTK / RFU, ESF1 / Fold change vs veh, ESF1 / Fold change vs veh, TMEM50B / RFU, TAOK1 / Fold change vs veh, TAOK1 / RFU, ACBD3 / Fold change vs veh, ACBD3 / RFU, TMA16 / Fold change vs veh, TMA16 / RFU, RWDD3 / Fold change vs veh, RWDD3 / RFU, BCAT1 / Fold change vs veh, BCAT1 / RFU, EDEM3 / Fold change vs veh, EDEM3 / RFU, TMEM33 / Fold change vs veh, TMEM33 / RFU, WDR75 / Fold change vs veh, WDR75 / RFU, AHCTF1 / Fold change vs veh, AHCTF1 / RFU, TFRC / Fold change vs veh, TFRC / RFU, ZDHHC17 / Fold change vs veh, ZDHHC17 / RFU, NOM1 / Fold change vs veh, NOM1 / RFU, ARL8B / Fold change vs veh, ARL8B / RFU, ZBTB11 / Fold change vs veh, ZBTB11 / RFU, TAMM41 / Fold change vs veh, TAMM41 / RFU, KIAA1704 /// LOC100996395 / Fold change vs veh, KIAA1704 /// LOC100996395 / RFU, ING1 / Fold change vs veh, ING1 / RFU, TRMT61B / Fold change vs veh, TRMT61B / RFU, FUBP3 / Fold change vs veh, FUBP3 / RFU, TP53 / Fold change vs veh, TP53 / RFU, TNKS2 / Fold change vs veh, TNKS2 / RFU, ZFP14 / Fold change vs veh, ZFP14 / RFU, ACTR2 / Fold change vs veh, ACTR2 / RFU, PPP3R1 / Fold change vs veh, PPP3R1 / RFU, PIK3R1 / Fold change vs veh, PIK3R1 / RFU, HNRNPA1 / Fold change vs veh, HNRNPA1 / RFU, RNF170 / Fold change vs veh, RNF170 / RFU, ZNF28 / Fold change vs veh, ZNF28 / RFU, RNGTT / Fold change vs veh, RNGTT / RFU, OGT / Fold change vs veh, OGT / RFU, BRD1 / Fold change vs veh, BRD1 / RFU, MARS / Fold change vs veh, MARS / RFU, ZNF655 / Fold change vs veh, ZNF655 / RFU, FAHD1 / Fold change vs veh, FAHD1 / RFU, BDP1 / Fold change vs veh, BDP1 / RFU, LRRCC1 / Fold change vs veh, LRRCC1 / RFU, ARID1A / Fold change vs veh, ARID1A / RFU, ZNF146 / Fold change vs veh, ZNF146 / RFU, ZNF330 / Fold change vs veh, ZNF330 / RFU, GPN3 / Fold change vs veh, GPN3 / RFU, C9orf123 / Fold change vs veh, C9orf123 / RFU, N4BP2L2 / Fold change vs veh, N4BP2L2 / RFU, ARFIP1 / Fold change vs veh, ARFIP1 / RFU, FAM179B / Fold change vs veh, FAM179B / RFU, BCL10 / Fold change vs veh, BCL10 / RFU, UHRF1BP1L / Fold change vs veh, UHRF1BP1L / RFU, BET1 / Fold change vs veh, BET1 / RFU, CNOT2 / Fold change vs veh, CNOT2 / RFU, ZNF268 / Fold change vs veh, ZNF268 / Fold change vs veh, ZNF507 / RFU, DGCR2 / Fold change vs veh, DGCR2 / RFU, WDSUB1 / Fold change vs veh, WDSUB1 / Fold change vs veh, HSP90B1 /// MIR3652 / RFU, ADSS / Fold change vs veh, ADSS / RFU, GK / Fold change vs veh, GK / RFU, ZNF148 / Fold change vs veh, ZNF148 / RFU, TAF9 / Fold change vs veh, TAF9 / RFU, SLC1A5 / Fold change vs veh, SLC1A5 / RFU, SLMO2 / Fold change vs veh, SLMO2 / RFU, ABCC4 / Fold change vs veh, ABCC4 / RFU, LOC101060439 /// RAP1B / Fold change vs veh, LOC101060439 /// RAP1B / RFU, RFX7 / Fold change vs veh, RFX7 / RFU, GTPBP10 / Fold change vs veh, GTPBP10 / RFU, CNEP1R1 / Fold change vs veh, CNEP1R1 / RFU, BIVM-ERCC5 /// ERCC5 / Fold change vs veh, BIVM-ERCC5 /// ERCC5 / RFU, ILF3 / Fold change vs veh, ILF3 / RFU 11762660_at / Fold change /veh 11762660_at / RFU VCAN (11757783_s_at) / Fold change /veh VCAN (11757783_s_at) / RFU DDX43 (11728927_at) / Fold change /veh DDX43 (11728927_at) / RFU KRT8 (11758188_x_at) / Fold change /veh KRT8 (11758188_x_at) / RFU NKD1 (11759106_at) / Fold change /veh NKD1 (11759106_at) / RFU SRD5A1 (11742802_a_at) / Fold change /veh SRD5A1 (11742802_a_at) / RFU TPSAB1 /// TPSB2 (11721975_s_at) / Fold change /veh TPSAB1 /// TPSB2 (11721975_s_at) / RFU GSTM3 (11746129_a_at) / Fold change /veh GSTM3 (11746129_a_at) / RFU IL23R (11737362_x_at) / Fold change /veh IL23R (11737362_x_at) / RFU TMEM51 (11727254_a_at) / Fold change /veh TMEM51 (11727254_a_at) / RFU PIWIL2 (11732686_x_at) / Fold change /veh PIWIL2 (11732686_x_at) / RFU ORM1 (11744905_x_at) / Fold change /veh ORM1 (11744905_x_at) / RFU CCDC152 (11743942_at) / Fold change /veh CCDC152 (11743942_at) / RFU ECM1 (11717891_a_at) / Fold change /veh ECM1 (11717891_a_at) / RFU IL23R (11748794_a_at) / Fold change /veh IL23R (11748794_a_at) / RFU TNFAIP8L3 (11732012_x_at) / Fold change /veh TNFAIP8L3 (11732012_x_at) / RFU MBOAT4 (11741988_at) / Fold change /veh MBOAT4 (11741988_at) / RFU 11764193_at / Fold change /veh 11764193_at / RFU TMEM53 (11763286_at) / Fold change /veh TMEM53 (11763286_at) / RFU MAGEB2 (11727129_at) / Fold change /veh MAGEB2 (11727129_at) / RFU TMEM200A (11744735_a_at) / Fold change /veh TMEM200A (11744735_a_at) / RFU CCDC152 (11751479_a_at) / Fold change /veh CCDC152 (11751479_a_at) / RFU FAM211A (11726209_a_at) / Fold change /veh FAM211A (11726209_a_at) / RFU RGS16 (11746705_a_at) / Fold change /veh RGS16 (11746705_a_at) / RFU VCAN (11755009_s_at) / Fold change /veh VCAN (11755009_s_at) / RFU RHOB (11743442_s_at) / Fold change /veh RHOB (11743442_s_at) / RFU RGS16 (11720943_a_at) / Fold change /veh RGS16 (11720943_a_at) / RFU RGS16 (11720944_at) / Fold change /veh RGS16 (11720944_at) / RFU, VPS4B / Fold change vs veh, VPS4B / RFU, CREB1 / Fold change vs veh, CREB1 / RFU, DNAJC13 / Fold change vs veh, DNAJC13 / RFU, GNAQ / Fold change vs veh, GNAQ / RFU, CDK5R1 / Fold change vs veh, CDK5R1 / RFU, ZRANB3 / Fold change vs veh, ZRANB3 / RFU, CUL4A / Fold change vs veh, CUL4A / RFU, CCNY / Fold change vs veh, CCNY / RFU, UFL1 / Fold change vs veh, UFL1 / RFU, COG3 / Fold change vs veh, COG3 / RFU, DIAPH2 / Fold change vs veh, DIAPH2 / RFU, SKA2 / Fold change vs veh, SKA2 / RFU, AFF3 / Fold change vs veh, AFF3 / RFU, LMF1 / Fold change vs veh, LMF1 / RFU, IPO11 / Fold change vs veh, IPO11 / RFU, DFFB / Fold change vs veh, DFFB / RFU, FOXP1 / Fold change vs veh, FOXP1 / RFU, CARD8 / Fold change vs veh, CARD8 / RFU, STRN3 / Fold change vs veh, STRN3 / RFU, ADK / Fold change vs veh, ADK / RFU, RASSF2 / Fold change vs veh, RASSF2 / RFU, WIPF1 / Fold change vs veh, WIPF1 / RFU, LARP1B / Fold change vs veh, LARP1B / RFU, RASA1 / Fold change vs veh, RASA1 / RFU, RB1 / Fold change vs veh, RB1 / RFU, PPFIA1 / Fold change vs veh, PPFIA1 / RFU, MAT2A / Fold change vs veh, MAT2A / RFU, CCT5 / Fold change vs veh, CCT5 / RFU, WDR92 / Fold change vs veh, WDR92 / RFU, CUX1 / Fold change vs veh, CUX1 / RFU, TTC7A / Fold change vs veh, TTC7A / RFU, TMEM135 / Fold change vs veh, TMEM135 / RFU, DEPTOR / Fold change vs veh, DEPTOR / RFU, CPM / Fold change vs veh, CPM / RFU, DNAJB6 / Fold change vs veh, DNAJB6 / RFU, CACNA2D3 / Fold change vs veh, CACNA2D3 / RFU, DTX4 / Fold change vs veh, DTX4 / RFU, TFCP2 / Fold change vs veh, TFCP2 / RFU, GMCL1 /// GMCL1P1 / Fold change vs veh, GMCL1 /// GMCL1P1 / RFU, AEBP2 / Fold change vs veh, AEBP2 / RFU, SNHG1 /// SNORD22 /// SNORD25 /// SNORD26 /// SNORD27 /// SNORD28 /// SNORD29 /// SNORD31 / Fold change vs veh, SNHG1 /// SNORD22 /// SNORD25 /// SNORD26 /// SNORD27 /// SNORD28 /// SNORD29 /// SNORD31 / Fold change (Aza/veh), C12orf56 (ProbeSet 11735607_a_at) / Fold change (ACY-1035/veh), C12orf56 (ProbeSet 11735607_a_at) / Fold change (Aza/veh), FGFR1OP (ProbeSet 11751329_s_at) / Fold change (ACY-1035/veh), FGFR1OP (ProbeSet 11751329_s_at) / Fold change (Aza/veh), VPS36 (ProbeSet 11739960_a_at) / Fold change (ACY-1035/veh), VPS36 (ProbeSet 11739960_a_at) / RFU SYPL1 (11715823_x_at) / Fold change /veh SYPL1 (11715823_x_at) / RFU IGFBP7 (11715501_s_at) / Fold change /veh IGFBP7 (11715501_s_at) / RFU REEP3 (11722064_at) / Fold change /veh REEP3 (11722064_at) / RFU IGLL1 (11728026_x_at) / Fold change /veh IGLL1 (11728026_x_at): dose or concentration left out as unconfirmed. The settings on record: MV-4-11 cells, 48 hours.

`Nc1ccc(-c2cccs2)cc1NC(=O)c1ccc2c(c1)cc(C1CC1)n2CCN1CCOCC1` [ACY-1035]: the “RFU VPS37D (11726825_at)” value amounted to 17.46 RFU.

The values above are taken from PMC5218480 (PLoS ONE, 2017).
